Experimental data taken from US20230212116A1, “SARS-COV-2 MAIN PROTEASE INHIBITORS” (TEXAS A&M UNIVERSITY SYSTEM, priority 2020, published 2023).

target: SARS-CoV-2 M^Pro (Severe acute respiratory syndrome coronavirus 2, UniProt P0DTD1); test: biochemical; format: biochemical; settings: not given

Row | Compound | IC50 [nM]
1 | CC(C)C[C@H](NC(=O)OCc1ccccc1)C(=O)NN(CCC(N)=O)C(=O)OCC(F)(F)F [MPI46, 2,2,2-trifluoroethyl 1-(3-amino-3-oxopropyl)-2-(((benzyloxy)carbonyl)-L-leucyl)hydrazine-1-carboxylate] | > 10000
2 | CC(C)C[C@H](NC(=O)OCc1ccccc1)C(=O)NN(CCC(N)=O)C(=O)Oc1ccc(F)cc1 [MPI47, 4-fluorophenyl 1-(3-amino-3-oxopropyl)-2-(((benzyloxy)carbonyl)-L-leucyl)hydrazine-1-carboxylate] | 1040
3 | C=CC(=O)N(CCC(N)=O)NC(=O)[C@H](CC(C)C)NC(=O)[C@@H](NC(=O)OCc1ccccc1)[C@@H](C)OC(C)(C)C [MPI50, benzyl ((2S,3R)-1-(((S)-1-(2-acryloyl-2-(3-amino-3-oxopropyl)hydrazineyl)-4-methyl-1-oxopentan-2-yl)amino)-3-(tert-butoxy)-1-oxobutan-2-yl)carbamate] | 109

same assay, conditions: 20 nM enzyme (10 nM for MPI3), 10 μM substrate, 37° C., 30 min enzyme-inhibitor incubation

Row | Compound | Enzymatic IC50
4 | CC(C)[C@H](NC(=O)OCc1ccccc1)C(=O)N[C@@H](Cc1cccs1)C(=O)N[C@H](C=O)C[C@@H]1CCNC1=O [MPI13, Benzyl ((S)-3-methyl-1-oxo-1-(((S)-1-oxo-1-(((S)-1-oxo-3-((S)-2-oxopyrrolidin-3-yl)propan-2-yl)amino)-3-(thiophen-2-yl)propan-2-yl)amino)butan-2-yl)carbamate] | (insoluble)

same assay, conditions: read-out: Enzymatic IC50

Row | Compound | IC50 [nM]
5 | C=CC(=O)N(Cc1cc(=O)[nH]c(=O)[nH]1)NC(=O)[C@H](CC(C)C)NC(=O)[C@@H](NC(=O)OCc1ccccc1)C(C)C [MPI35, benzyl ((S)-1-(((S)-1-(2-acryloyl-2-((2,6-dioxo-1,2,3,6-tetrahydropyrimidin-4-yl)methyl)hydrazineyl)-4-methyl-1-oxopentan-2-yl)amino)-3-methyl-1-oxobutan-2-yl)carbamate] | 4280 ± 278
6 | CCC(=O)N(CCC(N)=O)NC(=O)[C@H](CC(C)C)NC(=O)OCc1ccccc1 [MPI36, benzyl (S)-(1-(2-(3-amino-3-oxopropyl)-2-propionylhydrazineyl)-4-methyl-1-oxopentan-2-yl)carbamate] | > 10000
7 | CC(C)C[C@H](NC(=O)OCc1ccccc1)C(=O)NN(CCC(N)=O)C(=O)CCl [MPI37, benzyl (S)-(1-(2-(3-amino-3-oxopropyl)-2-(2-chloroacetyl)hydrazineyl)-4-methyl-1-oxopentan-2-yl)carbamate] | 64
8 | C=CC(=O)N(CCC(N)=O)NC(=O)[C@H](CC(C)C)NC(=O)OCc1ccccc1 [MPI38, benzyl (S)-(1-(2-acryloyl-2-(3-amino-3-oxopropyl)hydrazineyl)-4-methyl-1-oxopentan-2-yl)carbamate] | 640
9 | CC(C)C[C@H](NC(=O)OCc1ccccc1)C(=O)NN(CCC(N)=O)C(=O)[C@@H](C)Cl [MPI39, benzyl ((S)-1-(2-(3-amino-3-oxopropyl)-2-((R)-2-chloropropanoyl)hydrazineyl)-4-methyl-1-oxopentan-2-yl)carbamate] | 5038 ± 13
10 | CC(C)C[C@H](NC(=O)OCc1ccccc1)C(=O)NN(CCC(N)=O)C(=O)[C@H](C)Cl [MPI40, benzyl ((S)-1-(2-(3-amino-3-oxopropyl)-2-((S)-2-chloropropanoyl)hydrazineyl)-4-methyl-1-oxopentan-2-yl)carbamate] | 1620 ± 153
11 | CC(C)C[C@H](NC(=O)OCc1ccccc1)C(=O)NN(CCC(N)=O)C(=O)c1cc([N+](=O)[O-])ccc1F [MPI41, benzyl (S)-(1-(2-(3-amino-3-oxopropyl)-2-(2-fluoro-5-nitrobenzoyl)hydrazineyl)-4-methyl-1-oxopentan-2-yl)carbamate] | 39000
12 | C=C(Cc1ccccc1)C(=O)N(CCC(N)=O)NC(=O)[C@H](CC(C)C)NC(=O)OCc1ccccc1 [MPI42, benzyl (S)-(1-(2-(3-amino-3-oxopropyl)-2-(2-benzylacryloyl)hydrazineyl)-4-methyl-1-oxopentan-2-yl)carbamate] | > 10000
13 | CC(C)C[C@H](NC(=O)OCc1ccccc1)C(=O)NN(CCC(N)=O)C(=O)/C=C/CN(C)C [MPI43, benzyl (S,E)-(1-(2-(3-amino-3-oxopropyl)-2-(4-(dimethylamino)but-2-enoyl)hydrazineyl)-4-methyl-1-oxopentan-2-yl)carbamate] | > 10000
14 | CC(C)C[C@H](NC(=O)OCc1ccccc1)C(=O)NN(CCC(N)=O)C(=O)COc1ccc([N+](=O)[O-])cc1 [MPI44, benzyl (S)-(1-(2-(3-amino-3-oxopropyl)-2-(2-(4-nitrophenoxy)acetyl)hydrazineyl)-4-methyl-1-oxopentan-2-yl)carbamate] | > 10000
15 | CC(C)C[C@H](NC(=O)OCc1ccccc1)C(=O)NN(CCC(N)=O)C(=O)COc1ccc(F)cc1 [MPI45, benzyl (S)-(1-(2-(3-amino-3-oxopropyl)-2-(2-(4-fluorophenoxy)acetyl)hydrazineyl)-4-methyl-1-oxopentan-2-yl)carbamate] | > 10000
16 | C=CC(=O)N(CCC(N)=O)NC(=O)[C@H](CC(C)C)NC(=O)[C@@H](NC(=O)OCc1ccccc1)C(C)C [MPI51, benzyl ((S)-1-(((S)-1-(2-acryloyl-2-(3-amino-3-oxopropyl)hydrazineyl)-4-methyl-1-oxopentan-2-yl)amino)-3-methyl-1-oxobutan-2-yl)carbamate] | 36
17 | C=CC(=O)N(CCC(N)=O)NC(=O)[C@H](CC1CCCCC1)NC(=O)[C@@H](NC(=O)OCc1ccccc1)[C@@H](C)OC(C)(C)C [MPI52, benzyl ((2S,3R)-1-(((S)-1-(2-acryloyl-2-(3-amino-3-oxopropyl)hydrazineyl)-3-cyclohexyl-1-oxopropan-2-yl)amino)-3-(tert-butoxy)-1-oxobutan-2-yl)carbamate] | 61 ± 1.2
18 | C[C@@H](OC(C)(C)C)[C@H](NC(=O)OCc1ccccc1)C(=O)N[C@@H](CC1CCCCC1)C(=O)NN(CCC(N)=O)C(=O)CCl [MPI53, benzyl ((2S,3R)-1-(((S)-1-(2-(3-amino-3-oxopropyl)-2-(2-chloroacetyl)hydrazineyl)-3-cyclohexyl-1-oxopropan-2-yl)amino)-3-(tert-butoxy)-1-oxobutan-2-yl)carbamate] | 189
19 | CC(C)(C)NC(=O)N[C@H](C(=O)N1C[C@H]2[C@@H]([C@H]1C(=O)N[C@@H](C[C@@H]1CCNC1=O)C(=O)C(=O)NCc1ccccc1)C2(C)C)C(C)(C)C [MPI63, (1R,2S,5S)-N-((S)-4-(benzylamino)-3,4-dioxo-1-((S)-2-oxopyrrolidin-3-yl)butan-2-yl)-3-((S)-2-(3-(tert-butyl)ureido)-3,3-dimethylbutanoyl)-6,6-dimethyl-3-azabicyclo[3.1.0]hexane-2-carboxamide] | 103 ± 1.5
20 | CC(C)[C@H](NC(=O)NC(C)(C)C)C(=O)N[C@@H](CC1CC1)C(=O)N[C@H](C=O)C[C@@H]1CCNC1=O [MPI64, (S)-2-(3-(tert-butyl)ureido)-N-((S)-3-cyclopropyl-1-oxo-1-(((S)-1-oxo-3-((S)-2-oxopyrrolidin-3-yl)propan-2-yl)amino)propan-2-yl)-3-methylbutanamide] | 26.1 ± 1.4
21 | C[C@@H](OC(C)(C)C)[C@H](NC(=O)OCc1ccccc1)C(=O)N[C@@H](CC1CCCCC1)C(=O)N[C@@H](C[C@@H]1CCNC1=O)C(O)S(=O)(=O)O (stereo partly drawn) [MPI65, sodium (5S,8S,11S)-5-((R)-1-(tert-butoxy)ethyl)-8-(cyclohexylmethyl)-12-hydroxy-3,6,9-trioxo-11-(((S)-2-oxopyrrolidin-3-yl)methyl)-1-phenyl-2-oxa-4,7,10-triazadodecane-12-sulfonate] | 294 ± 15
